Laboratory results published in patent US20040147595A1, “Biofilm degrading or sloughing compositions and methods” (priority 2001, published 2004).

Tested on: OHHL induced LuxR dependent expression of GFP
Assay: Quantitative furanone inhibition of the LuxR-PluxI-gfp(ASV) quorum sensor in E. coli MT102 (pJBA89)
Format: cell-based, Escherichia coli
Conditions: gradient of furanone concentration lowering RFU to 40% versus OHHL concentration (5-100 nM)
Excerpt: To analyse the AHL antagonist activity of the halogenated furanones we tested the compounds for their ability to inhibit 3oxo-C6-HSL (OHHL) induced LuxR dependent expression of green fluorescent protein (GFP) from a Pgfp(ASV) fusion in the AHL monitor strain E. coli MT102 harbouring pJBA89 (Andersen et al., 2001).
The medium used is minimal ABT containing 0.5% glucose and 0.5% Casamino Acids. In growing cultures of the AHL monitor strain E. coli Mt102 (pJBA89) encoding […] and a P-gfp(ASV) fusion, GFP(ASV) is produced immediately upon OHHL addition specifically from the LuxR controlled P-gfp(ASV) fusion gene. The sensitivity is high (responsive to as little as 3 nm OHHL) and due to the instability built into the GFP (ASV) variant there is no background production of green fluoroscence (Andersen et al., 2001). GFP expression from the AHL monitor strain E. coli MT102 (pJBA89) and the control strain MT102 harbouring the lacl^q, Plas-gfp(ASV) IPTG inducible expression system pMH197 was quantified in the following way. Overnight cultures were diluted four fold in fresh medium and incubated for one hour at 30° C. while OHHL and furanone compounds in the required concentrations were mixed in the wells of microtiter dishes. […] When absolute values were required, green fluoroscence was measured on a fluorometer (model RF-1501; Shimadzu, Tokyo, Japan) act at an excitation wavelength of 475 nm and emission detection at 515 nm. To establish a correlation between the colour code of the ARGUS-50 captured images and green fluorescence, both colour and relative fluorescence units (RFU), were determined for a dilution series of an E. coli MT102 (pJBA89) culture which had been incubated with […]. […]
From the second plot, the furanone concentration reducing the relative activity to 40% (ID60) is determined for each OHHL concentration. […]
To enable easy comparison of the strength of the furanones, an inhibition index (IIX40) is calculated for each furanone compound. […]

O=C1C=C/C(=C/Br)O1 [furanone 56]
inhibition index (IIX40): 0.51 mole of furanone per mmole of
